Measured values: PubChem BioAssay (NCI)
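Grown in 96-well plates, cells were treated for 48 hours with each compound at five concentrations. Insufficient inhibition: endpoint recorded as highest concentration tested. GI50: concentration for 50% inhibition of growth. TGI marks complete inhibition of growth.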

Tests used:
Assay in all cases: NCI tumour cell line growth inhibition, 48 h; in the data active = GI50 below about 0.43 µM; inactive = the rest
DU-145 prostate = test system: DU-145 prostate
HOP-62 NSCLC = test system: HOP-62 NSCLC
UO-31 renal = test system: UO-31 renal
SNB-75 CNS = test system: SNB-75 CNS
SF-295 CNS = test system: SF-295 CNS
OVCAR-4 ovarian = test system: OVCAR-4 ovarian
NCI-H460 lung = test system: NCI-H460 lung
MALME-3M melanoma = test system: MALME-3M melanoma
RPMI-8226 leukemia = test system: RPMI-8226 leukemia
A549 NSCLC = test system: A549 NSCLC
UACC-257 melanoma = test system: UACC-257 melanoma
UACC-62 melanoma = test system: UACC-62 melanoma
SF-268 CNS = test system: SF-268 CNS
LOX IMVI melanoma = test system: LOX IMVI melanoma
NCI-H226 lung = test system: NCI-H226 lung
OVCAR-8 ovarian = test system: OVCAR-8 ovarian
A498 renal = test system: A498 renal
MOLT-4 leukemia = test system: MOLT-4 leukemia
T-47D breast = test system: T-47D breast
OVCAR-5 ovarian = test system: OVCAR-5 ovarian
NCI-H522 lung = test system: NCI-H522 lung
SK-MEL-5 melanoma = test system: SK-MEL-5 melanoma
NCI-H23 lung = test system: NCI-H23 lung
BT-549 breast = test system: BT-549 breast
SF-539 CNS = test system: SF-539 CNS
COLO 205 colon = test system: COLO 205 colon
HCT-15 colon = test system: HCT-15 colon
K-562 leukemia = test system: K-562 leukemia
SN12C renal = test system: SN12C renal
HCC-2998 colon = test system: HCC-2998 colon
RXF 393 renal = test system: RXF 393 renal
CCRF-CEM leukemia = test system: CCRF-CEM leukemia
U251 CNS = test system: U251 CNS
SW-620 colon = test system: SW-620 colon
HL-60(TB) leukemia = test system: HL-60(TB) leukemia
HS 578T breast = test system: HS 578T breast
M14 melanoma = test system: M14 melanoma
KM12 colon = test system: KM12 colon
IGROV1 ovarian = test system: IGROV1 ovarian
HOP-92 NSCLC = test system: HOP-92 NSCLC
SR leukemia = test system: SR leukemia
TK-10 renal = test system: TK-10 renal
HCT-116 colon = test system: HCT-116 colon
CAKI-1 renal = test system: CAKI-1 renal
SK-MEL-2 melanoma = test system: SK-MEL-2 melanoma
ACHN renal = test system: ACHN renal
EKVX NSCLC = test system: EKVX NSCLC
SK-OV-3 ovarian = test system: SK-OV-3 ovarian
PC-3 prostate = test system: PC-3 prostate
HT29 colon = test system: HT29 colon
SK-MEL-28 melanoma = test system: SK-MEL-28 melanoma
MCF7 breast = test system: MCF7 breast
MDA-MB-231 breast = test system: MDA-MB-231 breast
NCI/ADR-RES ovarian = test system: NCI/ADR-RES ovarian
786-0 renal = test system: 786-0 renal
SNB-19 CNS = test system: SNB-19 CNS
MDA-MB-435 = test system: MDA-MB-435
OVCAR-3 ovarian = test system: OVCAR-3 ovarian

O=C1CCC(N2C(=O)c3ccc(NS(=O)(=O)c4ccccc4OC(F)(F)F)cc3C2=O)C(=O)N1 (stereo unspecified)
> 27.8 µM: TGI (PC-3 prostate)
0.341 µM: TGI (MOLT-4 leukemia)
1.61 µM: TGI (BT-549 breast)
active: GI50 (HOP-62 NSCLC) 0.187 µM | GI50 (UO-31 renal) 0.306 µM | GI50 (SNB-75 CNS) 0.11 µM | GI50 (MALME-3M melanoma) 0.147 µM | GI50 (OVCAR-8 ovarian) 0.159 µM | GI50 (A498 renal) 0.266 µM | GI50 (MOLT-4 leukemia) 0.0314 µM | GI50 (T-47D breast) 0.165 µM | GI50 (BT-549 breast) 0.12 µM | GI50 (HCT-15 colon) 0.1 µM | GI50 (CCRF-CEM leukemia) 0.0312 µM | GI50 (SW-620 colon) 0.312 µM | GI50 (HL-60(TB) leukemia) 0.0279 µM | GI50 (HS 578T breast) 0.0582 µM | GI50 (HOP-92 NSCLC) 0.022 µM | GI50 (MDA-MB-231 breast) 0.082 µM
7.95 µM: TGI (RXF 393 renal)
> 100 µM: TGI (DU-145 prostate) | TGI (SF-295 CNS) | TGI (OVCAR-4 ovarian) | TGI (NCI-H460 lung) | TGI (RPMI-8226 leukemia) | TGI (A549 NSCLC) | TGI (UACC-257 melanoma) | TGI (UACC-62 melanoma) | TGI (SF-268 CNS) | TGI (LOX IMVI melanoma) | TGI (NCI-H226 lung) | TGI (OVCAR-8 ovarian) | TGI (OVCAR-5 ovarian) | TGI (NCI-H522 lung) | TGI (NCI-H23 lung) | TGI (SF-539 CNS) | TGI (K-562 leukemia) | TGI (SN12C renal) | TGI (U251 CNS) | TGI (SW-620 colon) | TGI (M14 melanoma) | TGI (KM12 colon) | TGI (IGROV1 ovarian) | TGI (SR leukemia) | TGI (TK-10 renal) | TGI (HCT-116 colon) | TGI (CAKI-1 renal) | TGI (ACHN renal) | TGI (EKVX NSCLC) | TGI (SK-OV-3 ovarian) | TGI (HT29 colon) | TGI (SK-MEL-28 melanoma) | TGI (MCF7 breast) | TGI (NCI/ADR-RES ovarian) | TGI (786-0 renal) | TGI (SNB-19 CNS) | TGI (MDA-MB-435)
3.49 µM: TGI (MALME-3M melanoma)
2.26 µM: TGI (MDA-MB-231 breast)
> 27.2 µM: TGI (COLO 205 colon)
inactive: GI50 (DU-145 prostate) > 100 µM | GI50 (SF-295 CNS) 4.38 µM | GI50 (OVCAR-4 ovarian) 2.61 µM | GI50 (NCI-H460 lung) > 100 µM | GI50 (RPMI-8226 leukemia) 7.63 µM | GI50 (A549 NSCLC) 7 µM | GI50 (UACC-257 melanoma) > 100 µM | GI50 (UACC-62 melanoma) 16.1 µM | GI50 (SF-268 CNS) 0.911 µM | GI50 (LOX IMVI melanoma) > 100 µM | GI50 (NCI-H226 lung) 1.12 µM | GI50 (OVCAR-5 ovarian) 12.6 µM | GI50 (SK-MEL-5 melanoma) 2.56 µM | GI50 (NCI-H23 lung) > 100 µM | GI50 (SF-539 CNS) > 50.7 µM | GI50 (COLO 205 colon) 0.857 µM | GI50 (K-562 leukemia) 3.01 µM | GI50 (SN12C renal) 1.14 µM | GI50 (HCC-2998 colon) 0.729 µM | GI50 (RXF 393 renal) 0.609 µM | GI50 (U251 CNS) > 100 µM | GI50 (M14 melanoma) 1.59 µM | GI50 (KM12 colon) 1.97 µM | GI50 (IGROV1 ovarian) 0.465 µM | GI50 (SR leukemia) 10.8 µM | GI50 (TK-10 renal) 2.72 µM | GI50 (HCT-116 colon) > 100 µM | GI50 (CAKI-1 renal) 0.456 µM | GI50 (SK-MEL-2 melanoma) 1.67 µM | GI50 (ACHN renal) 8.7 µM | GI50 (EKVX NSCLC) > 100 µM | GI50 (SK-OV-3 ovarian) 2.6 µM | GI50 (PC-3 prostate) 0.455 µM | GI50 (HT29 colon) 7.7 µM | GI50 (SK-MEL-28 melanoma) 7.37 µM | GI50 (MCF7 breast) 1.68 µM | GI50 (NCI/ADR-RES ovarian) 0.7 µM | GI50 (786-0 renal) 0.668 µM | GI50 (SNB-19 CNS) 0.843 µM | GI50 (MDA-MB-435) 6.34 µM
> 70.8 µM: TGI (HCC-2998 colon)
0.161 µM: TGI (HOP-92 NSCLC)
2.46 µM: TGI (HOP-62 NSCLC)
1.75 µM: TGI (A498 renal)
> 27 µM: TGI (SK-MEL-5 melanoma)
> 68 µM: TGI (HCT-15 colon)
0.35 µM: TGI (HL-60(TB) leukemia)
38.4 µM: TGI (SK-MEL-2 melanoma)
2.68 µM: TGI (SNB-75 CNS)
> 29.1 µM: TGI (UO-31 renal)
1.43 µM: TGI (HS 578T breast)

CCN(CC)S(=O)(=O)c1ccc(-c2nc(C(Cl)Cl)nc3cc(C)nn23)cc1
5.57 µM: TGI (CAKI-1 renal)
> 100 µM: TGI (UO-31 renal) | TGI (SNB-75 CNS) | TGI (SF-268 CNS) | TGI (LOX IMVI melanoma) | TGI (NCI-H226 lung) | TGI (MOLT-4 leukemia) | TGI (T-47D breast) | TGI (OVCAR-5 ovarian) | TGI (NCI-H522 lung) | TGI (SF-539 CNS) | TGI (K-562 leukemia) | TGI (U251 CNS) | TGI (HL-60(TB) leukemia) | TGI (SR leukemia) | TGI (TK-10 renal) | TGI (SK-MEL-2 melanoma) | TGI (MCF7 breast) | TGI (MDA-MB-231 breast) | TGI (786-0 renal) | TGI (SNB-19 CNS)
9.24 µM: TGI (A498 renal)
5.35 µM: TGI (KM12 colon) | TGI (EKVX NSCLC)
4.47 µM: TGI (NCI-H460 lung)
4.49 µM: TGI (DU-145 prostate)
4.96 µM: TGI (NCI-H23 lung)
5.12 µM: TGI (ACHN renal)
7.08 µM: TGI (HS 578T breast)
6.77 µM: TGI (SF-295 CNS)
8.66 µM: TGI (UACC-257 melanoma)
5.96 µM: TGI (HOP-92 NSCLC)
4.17 µM: TGI (COLO 205 colon)
5.72 µM: TGI (RPMI-8226 leukemia)
4.6 µM: TGI (A549 NSCLC)
5.17 µM: TGI (RXF 393 renal)
4.33 µM: TGI (OVCAR-3 ovarian)
7.41 µM: TGI (PC-3 prostate)
inactive: GI50 (DU-145 prostate) 1.7 µM | GI50 (HOP-62 NSCLC) 2.2 µM | GI50 (UO-31 renal) 2.78 µM | GI50 (SNB-75 CNS) 6.91 µM | GI50 (SF-295 CNS) 2.13 µM | GI50 (NCI-H460 lung) 1.85 µM | GI50 (RPMI-8226 leukemia) 2.11 µM | GI50 (A549 NSCLC) 1.88 µM | GI50 (UACC-257 melanoma) 2.59 µM | GI50 (SF-268 CNS) 3.32 µM | GI50 (LOX IMVI melanoma) 6.32 µM | GI50 (NCI-H226 lung) 5.36 µM | GI50 (A498 renal) 2.22 µM | GI50 (MOLT-4 leukemia) 3.32 µM | GI50 (T-47D breast) 4.03 µM | GI50 (OVCAR-5 ovarian) 3.07 µM | GI50 (NCI-H522 lung) 4.55 µM | GI50 (NCI-H23 lung) 2.01 µM | GI50 (OVCAR-3 ovarian) 1.85 µM | GI50 (SF-539 CNS) 3.07 µM | GI50 (COLO 205 colon) 1.85 µM | GI50 (K-562 leukemia) 2.94 µM | GI50 (HCC-2998 colon) 1.7 µM | GI50 (RXF 393 renal) 1.71 µM | GI50 (U251 CNS) 2.19 µM | GI50 (HL-60(TB) leukemia) 2.6 µM | GI50 (HS 578T breast) 2.4 µM | GI50 (KM12 colon) 1.89 µM | GI50 (HOP-92 NSCLC) 1.9 µM | GI50 (SR leukemia) 2.4 µM | GI50 (TK-10 renal) 3.03 µM | GI50 (CAKI-1 renal) 1.96 µM | GI50 (SK-MEL-2 melanoma) > 100 µM | GI50 (ACHN renal) 1.87 µM | GI50 (EKVX NSCLC) 2.05 µM | GI50 (PC-3 prostate) 2.16 µM | GI50 (MCF7 breast) 2.84 µM | GI50 (MDA-MB-231 breast) 2.55 µM | GI50 (786-0 renal) > 100 µM | GI50 (SNB-19 CNS) 2.9 µM
7.4 µM: TGI (HOP-62 NSCLC)
3.47 µM: TGI (HCC-2998 colon)
